This is an account of results in US10259843B2, “Cyclic tetrapeptide stereoisomers” (University of Kansas, priority 2014, dated 2019).

The structures appear in SMILES notation. “Also recorded” adds a separate entry of the source. Non-standard residues stand in square brackets, D forms with d. Residues, ends and D or L forms follow the SMILES beside them. Where only a bound is given, the exact number is not on record here.

In one series the target is mu opioid receptor (MOR) (Homo sapiens, UniProt P35372). The experiment in a line: radioligand binding assay, mu opioid receptor affinity. To be noted: n in parentheses; read-out: Ki (nM ± SEM) MOR. As to the method:
(§1) The peptides of Table 1 shown below in Tables 3 and 4 were evaluated in radioligand binding assays for mu, kappa and delta opioid receptor affinities in vitro, and in the mouse 55° C. warm water tail withdrawal assay in vivo for antinociception and opioid antagonist activity.

The nature of the next series: acute tolerance model. The following applies: in vivo.
A further series in a line: formalin assay. Format: in vivo, rodent. To be noted: 10 mg/kg oral, vs saline i.p. As to the method: It entails the injection of a dilute solution of formalin into the surface of the rodent's hindpaw, followed by the scoring of stereotypical behaviors such as flinching, licking, and biting of the affected hindpaw. The behaviors last for approximately 1 hour, with the early or acute stage (directly after injection) reflecting direct activation of nociceptors and the late or tonic phase (15 to 20 minutes after the injection) reflecting inflammation.

Series [1] has as its target delta opioid receptor (DOR) (Homo sapiens, UniProt P41143). The experiment in a line: radioligand binding assay, delta opioid receptor affinity. The following applies: n in parentheses; read-out: Ki (nM ± SEM) DOR. On the procedure:
as §1

A short description of series [2]: mouse 55° C. warm water tail withdrawal assay, antinociception. The class given is in vivo. The following applies: for ED50 (95% CI) i.c.v. / ED50 (95% CI) p.o.: antinociception; for Receptors involved: opioid receptors contributing to antinociception. As to the method:
as §1

A short description of series [3]: other pain models (formalin, acetic acid stretching, nerve constriction; FIGS. 1-3B). The following applies: in vivo. The source says:
These models are based on the formalin assay, the acetic acid stretching assay, and the nerve constriction assay. The formalin and acetic acid stretching assays are indicative of activity against inflammatory pain (i.e., nociceptive pain) and the nerve constriction assay is indicative of activity against neuropathic pain.

The nature of series [4]: acetic acid stretching assay. Format: in vivo. To be noted: 10 mg/kg and 30 mg/kg. On the procedure: The acetic acid stretching assay is a model for visceral pain and is the most popular chemical assay of nociception. In the assay, subjects are given a subcutaneous (s.c.) injection of drug or vehicle 60 min before an intraperitoneal (i.p.) injection of 0.6% acetic acid. After administration of the acetic acid, the subjects are placed in clear cages (11×7×5 in) and scored for abdominal stretches during a 20 min observation period. Stretching was defined as body contortions, belly pressing, and extension of the hind limbs from which visceral nociception was inferred. […] And while the effect of 3607 was not as pronounced as with morphine, the observed reductions in stretching were significant, indication that 3607 has a significant pain reduction effect.

Series [5] can be described thus: rotorod test for sedation and motor coordination. Format: in vivo. Further details: key: ✓ indicates tested (if no other comment then no significant effect). The following applies: 10 mg/kg, p.o. (In general: In the rotarod test animals must keep their balance on a rotating rod.)
Series [6] concerns opioid receptors (KOR, MOR, DOR). The experiment in a line: mouse 55° C. warm water tail withdrawal assay, opioid antagonist activity. Format: in vivo. The following applies: for Antagonism (dose, nmol): 30 nmol. On the procedure: as §1
A short description of the next series: locomotion (CLAMS). The class given is in vivo. Further details: key: ✓ indicates tested (if no other comment then no significant effect). The following applies: 10 mg/kg, p.o.
The nature of series [7]: nerve constriction assay for neuropathic pain. The class given is in vivo, rodent. To be noted: 3 mg/kg, 10 mg/kg, and 30 mg/kg; compared to 50 mg/kg gabapentin. On the procedure:
In the nerve constriction assay, a nerve of a subject rodent is chronically constricted or cuffed and then the animal is assessed for response to pain stimuli such a paw withdrawal. […] Gabapentin is an accepted treatment for neuropathic pain.

Series [8] addresses kappa opioid receptor (KOR) (Homo sapiens, UniProt P41145). Kind of series: radioligand binding assay, kappa opioid receptor affinity. The following applies: n in parentheses; read-out: Ki (nM ± SEM) KOR. On the procedure:
as §1

A further series can be described thus: respiratory depression. The class given is in vivo. Further details: key: ✓ indicates tested (if no other comment then no significant effect).
Series [9] can be described thus: conditioned place response assay. The following applies: oral administration of the peptides.
A short description of series [10]: stress-induced reinstatement of cocaine seeking behavior, conditioned place preference assay. To be noted: in vivo. An excerpt:
In interesting comparison to the other cyclic tetrapeptides, compound 3613 (DDDD) is a mu opioid receptor (MOR) agonist and delta opioid receptor (DOR) antagonist. MOR agonists/DOR antagonists are of great interest because of their decreased liability profile (decreased addiction potential and liability profile such as tolerance) compared to MOR agonists like morphine.

Chain of kappa opioid receptor (KOR) (P41145 whole entry): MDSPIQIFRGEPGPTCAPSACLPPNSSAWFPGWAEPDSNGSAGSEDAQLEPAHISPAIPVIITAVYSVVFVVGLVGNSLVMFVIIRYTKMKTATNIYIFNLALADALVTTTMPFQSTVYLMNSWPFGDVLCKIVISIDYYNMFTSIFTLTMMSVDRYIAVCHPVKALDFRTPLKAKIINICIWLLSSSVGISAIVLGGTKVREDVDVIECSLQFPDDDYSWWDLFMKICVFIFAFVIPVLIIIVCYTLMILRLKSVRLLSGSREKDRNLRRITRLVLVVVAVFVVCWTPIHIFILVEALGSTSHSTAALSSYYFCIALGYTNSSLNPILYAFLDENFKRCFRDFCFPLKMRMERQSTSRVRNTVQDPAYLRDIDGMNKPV
Chain of mu opioid receptor (MOR) (P35372 whole entry): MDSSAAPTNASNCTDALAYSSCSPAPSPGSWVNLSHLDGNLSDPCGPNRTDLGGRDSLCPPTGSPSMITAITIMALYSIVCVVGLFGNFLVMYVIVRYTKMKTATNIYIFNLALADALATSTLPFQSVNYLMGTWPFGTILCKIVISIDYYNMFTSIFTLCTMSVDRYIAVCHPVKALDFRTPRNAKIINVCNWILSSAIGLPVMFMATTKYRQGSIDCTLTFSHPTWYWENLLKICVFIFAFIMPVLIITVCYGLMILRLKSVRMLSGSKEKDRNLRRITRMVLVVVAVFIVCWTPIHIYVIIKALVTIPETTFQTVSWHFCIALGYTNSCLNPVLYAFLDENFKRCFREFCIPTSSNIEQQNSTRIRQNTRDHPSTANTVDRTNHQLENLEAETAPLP
Chain of delta opioid receptor (DOR) (P41143 whole entry): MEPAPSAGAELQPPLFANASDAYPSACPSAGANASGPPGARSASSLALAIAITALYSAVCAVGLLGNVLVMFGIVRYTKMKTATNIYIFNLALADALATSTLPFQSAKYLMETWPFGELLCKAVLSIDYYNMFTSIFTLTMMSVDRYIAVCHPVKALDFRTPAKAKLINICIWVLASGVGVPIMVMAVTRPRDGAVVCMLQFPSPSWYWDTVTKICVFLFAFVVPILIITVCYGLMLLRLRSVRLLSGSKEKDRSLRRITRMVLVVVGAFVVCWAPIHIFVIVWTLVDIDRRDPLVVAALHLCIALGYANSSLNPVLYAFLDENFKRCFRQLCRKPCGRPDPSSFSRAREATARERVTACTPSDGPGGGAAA

On to `O=C1N[C@H](Cc2ccccc2)C(=O)N2CCC[C@@H]2C(=O)N[C@H](Cc2ccccc2)C(=O)N[C@H]1Cc1c[nH]c2ccccc12` [JVA 3607, cyclo-[D-Phe-D-Pro-D-Phe-Trp]] (cyclo([dF][dP][dF]W)), for which the inhibitory constant (Ki) on mu opioid receptor (MOR) amounted to 7780 ± 410 nM. In addition, the “Acute Tolerance ED50 shift” value in “acute tolerance model” stood at 5.19 fold. In addition, the “time spent licking after formalin administration” value in the series “formalin assay” was “significant reduction”. Moreover, the Ki in [1] is more than 10000 nM. Also, in series [2], the “ED50 (95% CI) i.c.v.” value was determined as 1.00 nmol; the “ED50 (95% CI) p.o.” value is 4.12 mg/kg; the Receptors involved result was “mu opioid receptors (MOR) are not involved; also recorded: KOR, DOR”. Further, the “analgesic activity in other pain models” value in series [3] is recorded as “significant analgesic properties; also recorded: show activity against pain”. For the same compound, the “antinociception (abdominal stretches)” value in series [4] is recorded as “significant antinociception”. Besides, the “Rotorod (10 mg/kg, p.o.)” value in series [5] was “✓”. Also, the “Antagonism (dose, nmol)” value in [6] is listed as “None (30)”. In the series “locomotion (CLAMS)”, the “Locomotion (CLAMS, 10 mg/kg, p.o.)” value is reported as “✓”. The “relief of neuropathic pain” value in series [7] is reported as “significant relief of neuropathic pain”. Moreover, the inhibition constant (Ki) in [8] is 2560 ± 480 nM. For the same compound, in the series “respiratory depression”, the “Respiratory depression 10 mg/kg p.o.” value is recorded as “✓”. Moreover, the “conditioned place preference (drug seeking behavior) or conditioned place aversion” value in series [9] is listed as “no evidence of inducing drug seeking behavior; also recorded: do not show evidence of conditioned place preference (drug seeking behavior) or conditioned place aversion”.
`O=C1N[C@H](Cc2ccccc2)C(=O)N[C@H](Cc2c[nH]c3ccccc23)C(=O)N[C@H](Cc2ccccc2)C(=O)N2CCC[C@H]12` [JVA 3613, cyclo[D-Phe-D-Pro-D-Phe-D-Trp]] (cyclo([dF][dP][dF][dW])): the inhibitory constant (Ki) was more than 10000 nM on mu opioid receptor (MOR), more than 10000 nM in [1] and 2010 ± 270 nM in [8]. In series [10], the “prevention of stress-induced reinstatement of cocaine seeking behavior” value is recorded as “effective in preventing stress-induced reinstatement of cocaine seeking behavior”. Besides, the “ED50 (95% CI) i.c.v.” value in series [2] is given as 0.51 nmol. Moreover, the “ED50 (95% CI) p.o.” value in series [2] is on record as 2.47 mg/kg. For the same compound, the Receptors involved result in [2] is listed as “kappa opioid receptors (KOR) are not involved; also recorded: DOR, MOR”. Further, the “Rotorod (10 mg/kg, p.o.)” value in series [5] is on record as “✓”. Moreover, the “Antagonism (dose, nmol)” value in series [6] is “DOR (30)”. Further, the “Antagonism (opioid receptor antagonised in vivo)” value in [6] (dose not given) was “exhibit DOR antagonist activity”. Also, the “Locomotion (CLAMS, 10 mg/kg, p.o.)” value in the series “locomotion (CLAMS)” is on record as “✓”. Also, in “respiratory depression”, the “Respiratory depression 10 mg/kg p.o.” value is given as “✓”.

As usually defined, the Ki is a measure of affinity in units of concentration, obtained from inhibition or displacement.
